The test system of assay [1] is RAMOS (positive expression of Brutons tyrosine protein kinase). Put plainly: In vitro growth inhibition (GI50), RAMOS. The format is cell-based. To be noted: Homo sapiens, Cell lines of leukemia, read-out: GI 50 Ramos BTK. The text has this:
(§1) 1. Cell Lines and Cell Cultures
(§2) Tumor cell line is an effective cell model for studying the inhibition of tumor cell growth or proliferation in vitro. In the present invention, a representative tumor cell line was selected to determine the cell growth inhibition activity of the present compound. All cell lines used were from ATCC, DSMZ, and the Cell Bank of the Chinese Academy of Sciences. Cell culture conditions and methods were in accordance with the requirements of each cell line. Cells were subcultured in vitro for no more than 3 passages each time, and as required, single-clone purification and identification of cell lines could be carried out.
(§3) The cell culture media used were RPMI1640 (Gibco), MEM (Gibco), McCOY'S5A (Gibco), and IMDM (Gibco). The complete medium was prepared by supplement with 5˜20% fetal calf serum (Gibco), 1% double-antibiotics (10000 units/mL penicillin and 10000 units/mL), 2 mM glutamine or 1 mM sodium pyruvate, respectively.
(§4) The human acute […] monomonocyte leukemia cell line MV4-11 (FLT3 ITD+/+ mutant type, ATCC) was cultured in a complete medium comprising 1×IMDM and 10% FBS. Human acute myeloid leukemia cell line MOLM-13 (FLT3 ITD+/− mutant type, DSMZ), human acute lymphoblastic leukemia cell line RS4; 11 (FLT3 wild type, ATCC), human chronic granulocytic leukemia cell line K562 (FLT3 negative expression, positive expression of BCR-ABL fusion protein, ATCC), human promyelocytic leukemia cell line HL-60 (FLT3 wild type, ATCC), human B lymphoblastic leukemia cell line RAMOS (positive expression of Brutons tyrosine protein kinase, ATCC), human acute myeloid leukemia cell line Kasumi-1 (c-Kit N822K mutant type, ATCC), human acute monocytic leukemia cell line U937 (FLT3 wild-type, ATCC), human acute myeloid leukemia cell line OCI-AML3 (NPMc+ mutant type, ATCC), human acute myeloid leukemia cell line KG-1 (expressing FGFR1OP2-FGFR1 fusion protein, ATCC) were cultured in a complete medium comprising 1×RPMI1640 and 10% FBS, respectively.
(§5) The suspension cells were collected by centrifugation. The supernatant was discarded and the cell pellet was resuspended and counted. Different cell concentrations (5˜10×10^4 cells/mL) were prepared according to the growth cycle of each cell line and then seeded on a 96-well plate (Corning), 100 μL/well. The cells were incubated overnight at 37° C., 5% CO2. The compounds were added to the cells on the second day with 2 wells in parallel. The final concentration of organic solvent shall not exceed 1%. The cells were continually incubated for 3 to 5 days, and then subjected to MTT assay.
(§6) The compound was stored in a concentration of 10 mM at −20° C. and diluted to 2- or 10-fold series prior to use.
(§7) Dojindo CCK8 reagent kit was used as MTT assay. […] FC meter was used as microplate reader.
(§8) For adherent cells, culture medium was removed and immediately replaced with the fresh prepared medium which contains 10% CCK8 reagent (100 μL/well). For the suspension cells, CCK8 was directly added to 10% of the final concentration. The cells were continually incubated for 1˜4 h. […] The experiment was independently repeated 1˜3 times, and subject to biological statistical analysis. 4. Experimental Results
(§9) The initial concentration of the compound was 5,000 nM, then it was serially diluted by 2-fold or 10-fold to 0.01 nM. The GI50 value of each test compound was calculated according to the GI50 assay and calculation method. The experiments were repeated 1 to 3 times, and data were subjected to biological statistical analysis.

In assay [2] the test system is KG-1 (expressing FGFR1OP2-FGFR1 fusion protein). As to the kind of experiment: In vitro growth inhibition (GI50), KG-1. The format is cell-based. To be noted: Homo sapiens; Cell lines of leukemia; read-out: GI 50 KG-1 FGFR1OP 2-FGFR1.
Excerpt: as §1, §2, §3, §4, §5, §6, §7, §8, §9

Assay [3] has as its system OCI-AML3 (NPMc+ mutant type). As to the kind of experiment: In vitro growth inhibition (GI50), OCI-AML3. In kind it is cell-based. To be noted: Homo sapiens, OCI-AML-3; Cell lines of leukemia; read-out: GI 50 OCI- AML3 NPMc+.
Excerpt: as §1, §2, §3, §4, §5, §6, §7, §8, §9

In assay [4] the test system is MV4-11 (FLT3 ITD+/+ mutant type). As to the kind of experiment: In vitro growth inhibition (GI50), MV4-11. The format is cell-based, human. To be noted: Homo sapiens, MV4-11; Cell lines of leukemia; read-out: GI 50 MV4-11 FLT3 (ITD +/+).
Excerpt: as §1, §2, §3, §4, §5, §6, §7, §8, §9

Assay [5] deals with MOLM-13 (FLT3 ITD+/− mutant type). Put plainly: In vitro growth inhibition (GI50), MOLM-13. The format is cell-based, human. To be noted: Homo sapiens, MOLM-13; Cell lines of leukemia; read-out: GI 50 MOLM-13 FLT3 (ITD+/−).
Excerpt: as §1, §2, §3, §4, §5, §6, §7, §8, §9

For assay [6], the system named is RS4; 11 (FLT3 wild type). Put plainly: In vitro growth inhibition (GI50), RS4; 11. In kind it is cell-based, human. To be noted: Homo sapiens, RS4-11; Cell lines of leukemia; read-out: GI 50 RS4: 11 FLT3 (WT).
Excerpt: as §1, §2, §3, §4, §5, §6, §7, §8, §9

The test system of assay [7] is K562 (FLT3 negative expression, positive expression of BCR-ABL fusion protein). Put plainly: In vitro growth inhibition (GI50), K562. The format is cell-based. The conditions noted are these: Homo sapiens, Cell lines of leukemia, read-out: GI 50 K562 BCR-ABL.
Excerpt: as §1, §2, §3, §4, §5, §6, §7, §8, §9

Assay [8] has as its system U937 (FLT3 wild-type). Put plainly: In vitro growth inhibition (GI50), U937. To be noted: Homo sapiens, U-937; Cell lines of leukemia; read-out: GI 50 U937 FLT 3(WT). The format is cell-based.
Excerpt: as §1, §2, §3, §4, §5, §6, §7, §8, §9

Assay [9] relates to Kasumi-1 (c-Kit N822K mutant type). Put plainly: In vitro growth inhibition (GI50), Kasumi-1. In kind it is cell-based. To be noted: Homo sapiens, Cell lines of leukemia, read-out: GI 50 Kasumi-1 Kit (N822K).
Excerpt: as §1, §2, §3, §4
as §5, with “Adherent cells were digested with 0.25% pancreatin-EDTA (Gibco). The suspension” for “The suspension”
(§10) The compound of the present invention and the control compound were dissolved in DMSO (Sigma) respectively, with the purity of more than 98%. The compound was stored in a concentration of 10 mM at −20° C. and diluted to 2- or 10-fold series prior to use.
(§11) Dojindo CCK8 reagent kit was used as MTT assay. THERMO […] FC meter was used as microplate reader.
(§12) For adherent cells, culture medium was removed and immediately replaced with the fresh prepared medium which contains 10% CCK8 reagent (100 μL/well). For the suspension cells, CCK8 was directly added to 10% of the final concentration. The cells were continually incubated for 1˜4 h. When a dark yellow color could be observed in the solvent control wells, the absorbance value at OD450 nm was measured and the cell growth rate was calculated according to the following formula: Cell Growth Rate (%)=100*(T−T0)/(C−T0) T=optical density of drug treatment cell well—optical density of blank control well; T0=optical density of cell well before drug treatment—optical density of blank control well; C=optical density of cell well of solvent control group—optical density of blank control well. The concentration value of 50% inhibition of cell growth (GI50) was calculated according to the drug concentration and cell growth rate curve. […]

Assay [10] deals with HL-60 (FLT3 wild type). As to the kind of experiment: In vitro growth inhibition (GI50), HL-60. In kind it is cell-based. To be noted: Homo sapiens, Cell lines of leukemia, read-out: GI 50 HL60 FLT3 (WT).
Excerpt: as §1, §2, §3, §4
as §5, with “Adherent cells were digested with 0.25% pancreatin-EDTA (Gibco). The suspension” for “The suspension”
as §10, §11, §12

Each structure is given as a SMILES string. Where a name gives a salt, the structure may show the parent alone. Bounds are passed on as bounds.

For `CC(C)(C)c1cc(NC(=O)Nc2ccc(-c3cn4c(n3)sc3cc(OCCN5CCOCC5)ccc34)cc2)no1` [AC220, N-(5-tert-butyl-isoxazol-3-yl)-N′-{4-[7-(2-morpholin-4-yl-ethoxy)imidazo[2,1-b][1,3]benzothiazol-2-yl]phenyl}urea dihydrochloride, reference compound], the GI50 in assay [1], in [2] and in assay [3] was above 1000 nM throughout.

For `O=C(Nc1ccc(-n2cnc3ccccc32)cc1)Nc1ccon1` [Compound 1, 1-(4-benzimidazol-1-yl-phenyl)-3-isoxazol-3-yl-urea], the GI50 in assay [4], in [5], in [6], in assay [7], in [1] and in assay [8] was above 1000 nM throughout. The GI50 in [9], in [2], in assay [10] and in [3] was above 1000 nM in each case.

For the molecule `Cc1cc(NC(=O)Nc2ccc(-n3cnc4ccccc43)cc2)no1` [Compound 2, 1-(4-benzimidazol-1-yl-phenyl)-3-(5-methyl-isoxazol-3-yl)-urea], the GI50 in assay [4], in assay [5], in [6], in assay [7], in assay [1] and in assay [8] was above 1000 nM throughout. The GI50 in assay [9], in assay [2], in assay [10] and in [3] was above 1000 nM throughout.

For the molecule `CC(C)(C)c1cc(NC(=O)Nc2ccc(-n3cnc4ccccc43)cc2)no1` [Compound 3, 1-(4-benzimidazol-1-yl-phenyl)-3-(5-tert-butyl-isoxazol-3-yl)-urea], the GI50 in assay [4] is 0.1 to 1 nM; in assay [5] it was 0.1 to 1 nM; in assay [6], above 1000 nM; in [7], above 1000 nM; in assay [1], above 1000 nM; in [8], above 1000 nM. The GI50 in assay [9], in [2], in [10] and in assay [3] was above 1000 nM in each case.

On to `COc1ccc2c(c1)ncn2-c1ccc(NC(=O)Nc2cc(C(C)(C)C)on2)cc1` [Compound 5, 1-(5-tert-butyl-isoxazol-3-yl)-3-[4-(5-methoxyl-benzimidazol-1-yl)-phenyl]-urea], for which the GI50 was 0.1 to 1 nM in [4]; 0.1 to 1 nM in assay [5]; above 1000 nM in assay [6]; above 1000 nM in assay [7]; above 1000 nM in assay [1]; above 1000 nM in assay [8]. The GI50 in assay [9], in assay [2], in assay [10] and in [3] was above 1000 nM in each case.

Consider `CC(C)(C)c1cc(NC(=O)Nc2ccc(-n3cnc4cc(OCCOCCO)ccc43)cc2)no1` [Compound 14, 1-(5-tert-butyl-isoxazol-3-yl)-3-(4-{5-[2-(2-hydroxy-ethoxyl)-ethoxyl]-benzimidazol-1-yl}-phenyl)-urea], for which the GI50 in [4] is 0.1 to 1 nM; in [5] it was 0.1 to 1 nM; in assay [6], 100 to 1000 nM; in assay [7], 100 to 1000 nM; in assay [8], above 1000 nM; in assay [9] it was above 1000 nM. Besides, the GI50 in [2], in [10] and in assay [3] was above 1000 nM throughout.

For `COCCOc1ccc2c(c1)ncn2-c1ccc(NC(=O)Nc2cc(C(C)(C)C)nn2C)cc1` [Compound 101, 1-(5-tert-butyl-2-methyl-2H-pyrazol-3-yl)-3-{4-[5-(2-methoxyl-ethoxyl)-benzimidazol-1-yl]-phenyl}urea], the GI50 is 0.1 to 1 nM in [4]; 0.1 to 1 nM in [5]; above 1000 nM in [6]; above 1000 nM in assay [1]; above 1000 nM in assay [8]; above 1000 nM in [9]. In addition, the GI50 in assay [10] and in assay [3] was above 1000 nM in each case.

On to `Cn1nc(C(C)(C)C)cc1NC(=O)Nc1ccc(-n2cnc3cc(OCCN4CCOCC4)ccc32)cc1` [Compound 102], for which the GI50 in assay [4] was 0.1 to 1 nM; in assay [5] it was 0.1 to 1 nM; in assay [6], above 1000 nM; in assay [1], above 1000 nM; in assay [8], above 1000 nM; in assay [9], above 1000 nM. In addition, the GI50 in [10] and in assay [3] was above 1000 nM in each case.

With `Cc1cc(N)nn1C(=O)Nc1ccc(-n2cnc3ccccc32)cc1` [Compound 113, 3-amino-5-methylpyrazol-1-carboxylic acid (4-benzimidazol-1-yl-phenyl)-amide], the GI50 in [6], in [7], in assay [1], in assay [8], in assay [9] and in [2] was above 1000 nM throughout. Moreover, the GI50 in [10] and in assay [3] was above 1000 nM in each case.

These data come from patent publication US10647680B2, “Urea compound, preparation method therefor and medical use thereof” (Ancureall Pharmaceutical (Shanghai) Co., Ltd., priority 2016, dated 2020).
